Values of other authors in patent publication US6060616A, “Bis-platinum complexes with polymethylene derivatives as ligands having antitumor activity” (Hoffmann-La Roche Inc., priority 1998, dated 2000).

Conditions: clinical use, background

Question: For `N.N.O=C([O-])C1(C(=O)[O-])CCC1.[Pt+2]` [carboplatin, [Pt(NH3)2(CBDCA)]], which nephrotoxicity is on record?
Answer: The nephrotoxicity was “reduction in the nephrotoxic effects”.
